The test system of experiment [1] is intracranial U87 glioblastoma. In words: Nude mouse model of intracranial glioblastoma. The class given is in vivo, NCr nude mice. From the text:
FIG. 2 illustrates the in vivo antitumor activity of [VO(SO4)(Me2-Phen)2] against intracranial U87 glioblastoma in nude mice. A representative survival curve of [VO(SO4)(Me2-Phen)2]-treated (n=8) and control (n=9) mice is shown.
The animal protocols used in this study were approved by the Parker Hughes Institute Institutional Animal Care and Use Committee (IACUC). Female CB.17 severe combined immuno-deficient (SCID) and NCr nude mice were obtained from Taconic (Germantown, N.Y.) and housed in a specific pathogen-free room located in a secure indoor facility with controlled temperature, humidity, and noise levels. Mice were housed in microisolater cages and fed with autoclaved rodent chow. Water was also autoclaved and supplemented with trimethoprim/sulfomethoxazol 3 days/week.
Nude mice were anesthetized with Avertin (2,2,2-tribromoethanol in tert-amyl alcohol; Aldrich Chemical Co., Milwaukee, Wis.) at a dose of 0.5 mg/g under aseptic conditions in a laminar flow hood. A small hole was drilled through the skull 2 mm to the right of the midline and 2 mm posterior to the bregma. U87 glioblastoma cells (4×10^5 cells in 10 μl of PBS) were intracranially implanted into the right side of the cerebral hemisphere of the mice using a Hamilton syringe fitted to a stereotaxic apparatus with a mouse adaptor (David Kopf Instruments, Tujunga, Calif.) as described earlier (34). Twenty-four hours after inoculation, mice were treated intraperitoneally with [VO(SO4)(Me2-Phen)2] (10 mg/kg/day, n=10) or vehicle (5% DMSO in PBS, n=11) for ten consecutive days. […] The grains were then fixed in formalin, processed for histopathology and the tumor volumes from histological sections were measured as described earlier (Haung et al., J. Biol Chem, 272; 2927-2935, 1997). the remaining mice were monitored twice a day for survival.
Following intracranial implantation of 4×10^5 U87 glioblastoma cells (in 10 μl of PBS) into the right cerebral hemispheres of NCr […] mice [VO(SO4)(Me2-Phen)2] […] The mice wee monitored twice a day for health status. […]

In experiment [2] the test system is MDA-MB-231 breast cancer xenografts. In words: SCID mouse xenograft model of human breast cancer. The class given is in vivo, SCID mice. How it is done: FIGS. 1A-1B illustrate the in vivo antitumor activity of the vanadium compound, [VO(SO4)(Me2-Phen)2] against human glioblastoma and breast cancer in SCID mice. The effects of daily treatment with [VO(SO4)(Me2-Phen)2] (10 mg/kg/day) or 5% DMSO in PBS (given five days per week for four weeks beginning the day after inoculation) on tumor growth and progression of glioblastoma (FIG. 1A) and breast cancer (FIG. 1B) are illustrated. Comparisons between groups were done using the log-rank test.
The animal protocols used in this study were approved by the Parker Hughes Institute Institutional Animal Care and Use Committee (IACUC). […]
The right and left hind legs of the SCID mice were inoculated subcutaneously with 1×10^6 U87 human glioblastoma and 1×10^6 MDA-MB-231 beast cancer cells, respectively, in 0.1 mL PBS. […] Mice were monitored daily for health status as well as tumor growth and were sacrificed if they became moribund, developed tumors which impeded their ability to attain food or water, or at the ed of the six-week observation period. Tumors were measured using Vernier calipers three times per week. Tumor volumes were calculated according to the following formula, as described previously (Narla et al., Clin Cancer Res., 4: 1405-14, 1998; Friedman et al., Cancer Res., 55: 2853-2857, 1995): Tumor volume=(Width)^2(Length)/2. […]
(In xenograft studies the graft and the host belong to different species.)

Each structure is given as a SMILES string.

With `Cc1ccnc2c1ccc1c(C)ccnc12.Cc1ccnc2c1ccc1c(C)ccnc12.O=S(=O)([O-])[O-].[O]=[V+2]` [[VO(SO4)(Me2-Phen)2], bis(4,7-dimethyl-1,10-phenanthroline) sulfatooxovanadium (IV)], the “mice remaining alive for >24 days” value in experiment [1] (10 mg/kg/day i.p. for ten consecutive days) is “over 60%”. In addition, the median survival time in experiment [1] (10 mg/kg/day i.p. for ten consecutive days, control 19.6±0.6 days, P=0.0002) was determined as 24.4 ± 0.8 days. Also, the “average tumor volume, fold less than vehicle-treated control” value in experiment [1] (17 days after tumor cell inoculation, histological sections, two mice per group) is “approximately 2.9 fold”. Moreover, the “average size of tumors” value in experiment [2] (MDA-MB-231, 1.5 months after inoculation, 10 mg/kg i.p., vehicle control 641±98.7, P=0.004) was 286.9±41.5 mm^3. Also, in experiment [2] (follows the MDA-MB-231 sentence, 10 mg/kg/dose i.p., five days per week for four weeks), the “mice remaining alive and free of detectable tumors for >19 days” value amounted to 50%.

For the origin of these results see patent US6878388B1, “Vanadium compounds for treating proliferative cell disorders” (Parker Hughes Institute, priority 2000, dated 2005).
